Measurements published in article PMC11106675, “Synthesis of 1,4-azaphosphinine nucleosides and evaluation as inhibitors of human cytidine deaminase and APOBEC3A” (Beilstein Journal of Organic Chemistry, 2024).
Like-named read-outs stand apart in the source and are kept apart here. Each block holds one compound with its values, some of them ahead of it.

How the values were obtained:
[1] = Estimation of pKa from change of λmax as a function of pH; format: physicochemical; conditions: estimated from change in λmax as a function of pH
Description: Figure S6. UV-vis spectra of compounds Va (A) and Vb (B) at 100 µM in 20 mM phosphate buffer, containing 10 %
Estimation of pKa of nucleoside Va
A change of λmax of nucleoside Va as a function of pH of the solution was plotted (Figure below) and
Figure S7. Change in λmax of nucleoside Va as a function of pH.
(1 picture or pasted object on this page, not shown here)

[2] = molecular target: T1, human cytidine deaminase (hCDA) (Homo sapiens, UniProt P32320); test: UV kinetic assay of hCDA-catalysed 2'-deoxycytidine deamination; format: biochemical; conditions: for Ki: substrate dC, competitive inhibition assumed
T1 construct: purchased Sigma-Aldrich SRP6372; host or cells: E. coli
T1 sequence (P32320 whole entry): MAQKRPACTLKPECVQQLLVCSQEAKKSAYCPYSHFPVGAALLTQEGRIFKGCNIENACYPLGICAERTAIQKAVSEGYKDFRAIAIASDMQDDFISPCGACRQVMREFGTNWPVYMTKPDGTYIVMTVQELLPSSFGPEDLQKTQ
Description: We monitored the hCDA-catalysed deamination of dC at 286 nm and analysed the kinetic profiles at various inhibitor concentrations using a global regression analysis of the kinetic data using Lambert’s W function. This method provides better estimates for the Michaelis–Menten constant (KM) and maximum velocity (Vmax) than nonlinear regression analysis of the initial rate (V0). […] Then, KM for the substrate and Ki for each inhibitor were calculated, assuming competitive nature of the inhibitors (Table 1).
We assumed that protonation of Va might result in some inhibition of hCDA. […] This means that the pH value of the assay should be close to pH 1.5 to see any meaningful effect of partially protonated compound Va, but hCDA would be denatured at this pH value. By lowering the pH value to 6.0, dZ (IIc) started to lose potency against hCDA (Table 1), which might be a result of protonation of the pyrimidine ring in dZ (IIc). […] At this pH value, less than 1 in 1,000 molecules of Va might be protonated, which could mean that protonated acid Va is a potent hCDA inhibitor.
Protein expression and purification
Recombinant human cytidine deaminase (hCDA) expressed in E.Coli was purchased form Sigma-Aldrich, product No SRP6372. […]
UV kinetic assay of hCDA-catalysed 2'-deoxycytidine
UV spectroscopy was used to monitor hCDA-catalysed deamination of 2'-deoxycytidine at 286 nm in 100 mM NaCl, 50 mM phosphate buffer at 25 °C at various pH as mentioned in the text. Cary 300 Bio UV-vis spectrometer from Varian was used. Enzymatic reactions were performed in a q uartz cuvette (0.1 cm). Deamination of 2'-deoxycytidine leads to a decrease in absorption at 286 nm (Figure […]
Figure S10. hCDA (27nM) catalysed deamination of 2'-deoxycitidine (⁓1.5 mM) in the absence (plus) and presence of 5 µM 2'-deoxyzebularine (IIc, asterisk) monitored by measuring absorbance at 286 nm over time in 100 mM NaCl, 1 mM TCEP, 50 mM phosphate buffer at 25 °C, at pH 7.4.
The uninhibited deamination (pluses, Figure S10) and the inhibited reaction start at about the same speed. As the reaction progresses, the inhibited reaction becomes slower, as its observed KM is larger than in the uninhibited case. In order to be able to visualize the fitted curves, only every 5th data point is plotted. The data was then fitted using Gnuplot to the integrated Michaelis Menten equation [10]: […]
(1 picture or pasted object on this page, not shown here) […]
where mm(t) calculates the current substrate concentration with respect to the time, t. The four parameters which are fitted are KM and vmax, the Michaelis-Menten constants, c is the initial substrate concentration and d is a baseline correction parameter. A summary of the measured inhibition […]
An increase in concentration of an inhibitor in enzymatic reaction leads to an increase in the observed KM value. The plot of observed KM values versus inhibitor concentration (Figures S11–S13) was then fitted with linear regression (y = ax + b) to derive the inhibition constant (Ki) using the following […]
Uncertainty of Ki was calculated using error-propagation method.
Figure S11. A plot of observed KM versus various concentration of dZ (IIc) in hCDA (27 nM) catalysed deamination of 2'-deoxycitidine in 100 mM NaCl, 1 mM TCEP, 50 mM phosphate buffer at 25 °C, at pH 7.4. […]

[3] = Stability in aqueous solution (NMR samples); format: physicochemical; conditions: for stability in sodium phosphate buffer: pH 7.0, NMR samples, several days
Description: Catalytic hydrogenation is usually used for the removal of benzyl protecting groups. However, standard hydrogenation conditions using 10% Pd/C led to reduction of the C=C double bond in the nucleobase, providing nucleoside 24 (Scheme 3). To circumvent this problem, we used poisoned Pd catalyst (Lindlar’s catalyst, 5% Pd/CaCO3/3% Pb) and obtained the desired nucleoside 18. Individual anomers of nucleosides 18 and 24 were separated on a C18 column using a gradient of CH3CN in H2O. Removal of toluoyl groups was accomplished in aq NH3, providing pure α- and β-nucleoside of Va and Vc, respectively, carrying a negatively charged phosphinic acid group.

A3 enzymes = system: A3 enzymes; design: method as in PMID 30418757; conditions: as the free nucleoside; cited from earlier work

pKa [1]: ≤ 1.5
Ki ([2]; pH 7.4, 25 °C): lack of inhibition
stability in sodium phosphate buffer [3]: no decomposition
stability in water ([3]; pH 7.4): excellent stability
Structure (SMILES): O=C1CP(=O)(O)C=CN1C1CC(O)C(CO)O1 (stereo not drawn) [Va]

stability in sodium phosphate buffer [3]: no decomposition
Structure (SMILES): O=C1CP(=O)(O)CCN1C1CC(O)C(CO)O1 (stereo not drawn) [Vc]

Structure (SMILES): Nc1ccn([C@H]2C[C@H](O)[C@@H](CO)O2)c(=O)n1 [dC, 2'-deoxycytidine, reference compound]
Km ([2]; pH 7.4, fitted in the experiment with inhibitor dZ (IIc), read-out: Km of dC): 260 ± 40 µM

Structure (SMILES): O=c1ncccn1[C@H]1C[C@H](O)[C@@H](CO)O1 [dZ (IIc), 2'-deoxyzebularine, reference compound]
Km/Ki ([2]; pH 6.0): 5.5
Ki ([2]; pH 6.0, 25 °C, read-out: Ki): 49 ± 13 µM
Km/Ki ([2]; pH 7.4): 24
inhibition of A3 enzymes (A3 enzymes): does not inhibit

Ki ([2]; pH 4.7, 25 °C, read-out: Ki): 560 ± 100 µM
Ki ([2]; pH 6.0, 25 °C): no inhibition
Ki ([2]; pH 7.4, 25 °C): no inhibition
Structure (SMILES): O=C1CP(=O)(O)C=CN1C1CC(O)C(CO)O1 (stereo not drawn) [β-anomer of Va]

Structure (SMILES): NP1(=O)C=CN(C2CC(O)C(CO)O2)C(=O)C1 (stereo not drawn) [β-anomer of Vb]
Km/Ki ([2]; pH 7.4): 30
Ki ([2]; pH 7.4, 25 °C, read-out: Ki): 8 ± 1.9 µM
